Starred links: 1 amine or outer side, 2 acyl side, 3 side chain; linkers in the order of their positions; H or OH if unused. Positions of bridges follow the written chain, without caps; N, C: chain ends. Residues, ends and D or L forms follow the SMILES beside them. Groups on a side chain read outwards from the residue. *: point of attachment. d(γGlu) = O=C(O)[C@@H](CCC(=O)[*:2])N[*:1]; C16 diacid = O=C(O)CCCCCCCCCCCCCCC(=O)*; Dap = NC[C@H](N)C(=O)O
Legend:
[1] = Bowman et al., 1996; cited from earlier work
[2] = design: species or system mice; conditions: mouse, in vivo
Procedure: Animals were injected with Dap3 and blood was collected into EDTA containing tubes at indicated time points with n=3 per time point. After centrifugation EDTA plasma was stored at −80° C. until analysis. Dap3 was quantified by LC MS/MS as described in section 6.
6. Detection of Dap3 and MG-Modified Dap3 by LC-MS/MS A Dap3-MG standard was prepared by incubation of Dap3 with methylglyoxal in 0.1 M phosphate buffer followed by purification by preparative HPLC. The peptide CycK(e-Hdd)R4E was employed as internal standard which was added to the standard curve and plasma samples prior to precipitation. Prior to analysis 2 parts acetonitrile were added to the plasma, vortexed and centrifuged for 10 min at 13,000 g. The supernatant was analysed using an ACQUITY UPLC I fitted with a Acquity UPLC BEH C18 column (Waters, 2.1 mm*100 mm, […]) with a pre-column (2.1×5 mm, 1.7 μm) and a Xevo TQ-XS mass spectrometer (Waters, USA). Solvent A was water+0.1% formic acid and solvent B was acetonitrile+0.1% formic acid. A linear gradient from 0-100% solvent B at a flow rate of 0.2 ml/min over 20 min and a column temperature of 30° C. was used. The detailed parameters for the quantification of Dap3, Dap3-MG and CycK(e-Hdd)R4E, are described below

Row | Structure (SMILES) | half-life [1] | plasma half-life [2]
1 | N=C(N)NN [Aminoguanidine] | very short | 
2 | NC[C@H](N)C(=O)NCCCC[C@@H]1NC(=O)[C@H](CCCCNC(=O)[C@@H](N)CN)NC(=O)[C@H](CCC(=O)O)NC(=O)[C@H](CCCCNC(=O)[C@@H](N)CN)NC(=O)[C@H](CCCCNC(=O)CC[C@@H](NC(=O)CCCCCCCCCCCCCCC(=O)O)C(=O)O)NC(=O)CC[C@@H](C(=O)O)NC1=O [Dap3] (K([d(γGlu)-C16 diacid])K(Dap)EK(Dap)K(Dap)E-OH; lactam N-6) |  | long plasma half-life

From patent US20250206780A1, “CYCLIC PEPTIDES AND THEIR USE FOR THE TREATMENT OF DISEASES ASSOCIATED WITH DICARBONYLS LIKE METHYLGLYOXAL” (UNIVERSITÄT HEIDELBERG, priority 2022, published 2025)
